Test results: paper PMC10538245, “Fragment merging approach for design, synthesis, and biological assessment of urea/acetyl hydrazide clubbed thienopyrimidine derivatives as GSK-3β inhibitors” (BMC Chemistry, 2023)

Assays:
GSK-3β = GSK-3β (Homo sapiens, UniProt P49841); assay: GSK-3β kinase inhibition, Z'-LYTE FRET assay (Thermo Fisher SelectScreen); assay type: biochemical; conditions: for inhibition at 100 µM: 100 μM single dose; for IC50: five doses 10 nM–100 µM
UO-31 = assay: NCI 60-cell line one dose antiproliferative assay; assay type: cell-based; conditions: Homo sapiens; UO-31, Renal Cancer, 10 µM one dose; read-out: Percent inhibition (cell growth inhibition %)
From the text: (§1) The National Cancer Institute "NCI", NIH, Bethesda, Maryland, USA (www.dtp.nci.nih.gov) chose six of the final compounds for the Developmental Therapeutic Program (DTP), codes (5a, 5b, 5c, 5d, 6a, 6b). The NCI screening service will favor compounds with drug-like modes of action based on computer-aided design. Selection The criterion for screening is the possibility of the submitted compounds to provide diversity to the NCI small molecule chemical collection. This screen employs 60 different Leukemia, melanoma, and additional tumor cell lines of the human from brain, kidney, lung, ovary, colon, breast, and prostate cancers. All compounds were picked based on their NCI codes. NSC: D-820696/1, NSC: D-820697/1, NSC: D-820698/1, NSC: D-820699/1, NSC: D-820700/1, NSC: D-820701/1. The initial 10 µM one dose percent inhibition assay was performed on the entire NCI 60 cell panel to examine the different chemotypes of this work. The results are presented as a percentage of cell growth on each of the 60 NCI cell line panels for each of the investigated substances in Table 2.
(§2) The NCI cancer screening procedure includes a comparison of all substances to the sixty NCI cell line panel representing leukemia, NSCLC, cell lines from breast cancer, prostate cancer, melanoma, CNS cancer, renal cancer, ovarian cancer, and colon cancer at a single point of 10 uM. The results of the single-dose screen can be presented using a mean graph.

SK-MEL-5 = assay: NCI 60-cell line one dose antiproliferative assay; assay type: cell-based; conditions: Homo sapiens; SK-MEL-5, Melanoma, 10 µM one dose; read-out: Percent inhibition (cell growth inhibition %)
From the text: as §1, §2

T-47D = assay: NCI 60-cell line one dose antiproliferative assay; assay type: cell-based; conditions: Homo sapiens, T47D, Breast Cancer, 10 µM one dose, read-out: Percent inhibition (cell growth inhibition %)
From the text: as §1, §2

K-562 = assay: NCI 60-cell line one dose antiproliferative assay; assay type: cell-based; conditions: Homo sapiens, K562; K-562, Leukemia, 10 µM one dose; read-out: Percent inhibition (cell growth inhibition %)
From the text: as §1, §2

SF-268 = assay: NCI 60-cell line one dose antiproliferative assay; assay type: cell-based; conditions: Homo sapiens; SF-268, CNS Cancer, 10 µM one dose; read-out: Percent inhibition (cell growth inhibition %)
From the text: as §1, §2

ACHN = assay: NCI 60-cell line one dose antiproliferative assay; assay type: cell-based; conditions: Homo sapiens, Renal Cancer, 10 µM one dose, read-out: Percent inhibition (cell growth inhibition %)
From the text: as §1, §2

CAKI-1 = assay: NCI 60-cell line one dose antiproliferative assay; assay type: cell-based; conditions: Homo sapiens; CAKI-1, Renal Cancer, 10 µM one dose; read-out: Percent inhibition (cell growth inhibition %)
From the text: as §1, §2

UACC-62 = assay: NCI 60-cell line one dose antiproliferative assay; assay type: cell-based; conditions: Homo sapiens; UACC-62, Melanoma, 10 µM one dose; read-out: Percent inhibition (cell growth inhibition %)
From the text: as §1, §2

IGROV1 = assay: NCI 60-cell line one dose antiproliferative assay; assay type: cell-based; conditions: Homo sapiens, IGROV-1; IGROV1, Ovarian Cancer, 10 µM one dose; read-out: Percent inhibition (cell growth inhibition %)
From the text: as §1, §2

U251 = assay: NCI 60-cell line one dose antiproliferative assay; assay type: cell-based; conditions: Homo sapiens, U-251; U251, CNS Cancer, 10 µM one dose; read-out: Percent inhibition (cell growth inhibition %)
From the text: as §1, §2

LOX IMVI = assay: NCI 60-cell line one dose antiproliferative assay; assay type: cell-based; conditions: Homo sapiens, Melanoma, 10 µM one dose, read-out: Percent inhibition (cell growth inhibition %)
From the text: as §1, §2

A498 = assay: NCI 60-cell line one dose antiproliferative assay; assay type: cell-based; conditions: Homo sapiens; A498, Renal Cancer, 10 µM one dose; read-out: Percent inhibition (cell growth inhibition %)
From the text: as §1, §2

MDA-MB-231/ATCC = assay: NCI 60-cell line one dose antiproliferative assay; assay type: cell-based; conditions: Homo sapiens, Breast Cancer, 10 µM one dose, read-out: Percent inhibition (cell growth inhibition %)
From the text: as §1, §2

786–0 = assay: NCI 60-cell line one dose antiproliferative assay; assay type: cell-based; conditions: Homo sapiens; 786–0, Renal Cancer, 10 µM one dose; read-out: Percent inhibition (cell growth inhibition %)
From the text: as §1, §2

MCF7 = assay: NCI 60-cell line one dose antiproliferative assay; assay type: cell-based; conditions: Homo sapiens; MCF7, Breast Cancer, 10 µM one dose; read-out: Percent inhibition (cell growth inhibition %)
From the text: as §1, §2

SF-539 = assay: NCI 60-cell line one dose antiproliferative assay; assay type: cell-based; conditions: Homo sapiens; SF-539, CNS Cancer, 10 µM one dose; read-out: Percent inhibition (cell growth inhibition %)
From the text: as §1, §2

SR = assay: NCI 60-cell line one dose antiproliferative assay; assay type: cell-based; conditions: Homo sapiens, Leukemia, 10 µM one dose, read-out: Percent inhibition (cell growth inhibition %)
From the text: as §1, §2

NCI-H522 = assay: NCI 60-cell line one dose antiproliferative assay; assay type: cell-based; conditions: Homo sapiens; NCI-H522, Non-Small Cell Lung Cancer, 10 µM one dose; read-out: Percent inhibition (cell growth inhibition %)
From the text: as §1, §2

PC-3 = assay: NCI 60-cell line one dose antiproliferative assay; assay type: cell-based; conditions: Homo sapiens; PC-3, Prostate Cancer, 10 µM one dose; read-out: Percent inhibition (cell growth inhibition %)
From the text: as §1, §2

M14 = assay: NCI 60-cell line one dose antiproliferative assay; assay type: cell-based; conditions: Homo sapiens; M14, Melanoma, 10 µM one dose; read-out: Percent inhibition (cell growth inhibition %)
From the text: as §1, §2

SNB-19 = assay: NCI 60-cell line one dose antiproliferative assay; assay type: cell-based; conditions: Homo sapiens; SNB-19, CNS Cancer, 10 µM one dose; read-out: Percent inhibition (cell growth inhibition %)
From the text: as §1, §2

SF-295 = assay: NCI 60-cell line one dose antiproliferative assay; assay type: cell-based; conditions: Homo sapiens; SF-295, CNS Cancer, 10 µM one dose; read-out: Percent inhibition (cell growth inhibition %)
From the text: as §1, §2

HS 578 T = assay: NCI 60-cell line one dose antiproliferative assay; assay type: cell-based; conditions: Homo sapiens, Breast Cancer, 10 µM one dose, read-out: Percent inhibition (cell growth inhibition %)
From the text: as §1, §2

MALME-3 M = assay: NCI 60-cell line one dose antiproliferative assay; assay type: cell-based; conditions: Homo sapiens, Melanoma, 10 µM one dose, read-out: Percent inhibition (cell growth inhibition %)
From the text: as §1, §2

NCI-H226 = assay: NCI 60-cell line one dose antiproliferative assay; assay type: cell-based; conditions: Homo sapiens; NCI-H226, Non-Small Cell Lung Cancer, 10 µM one dose; read-out: Percent inhibition (cell growth inhibition %)
From the text: as §1, §2

SN12C = assay: NCI 60-cell line one dose antiproliferative assay; assay type: cell-based; conditions: Homo sapiens, Renal Cancer, 10 µM one dose, read-out: Percent inhibition (cell growth inhibition %)
From the text: as §1, §2

OVCAR-5 = assay: NCI 60-cell line one dose antiproliferative assay; assay type: cell-based; conditions: Homo sapiens; OVCAR-5, Ovarian Cancer, 10 µM one dose; read-out: Percent inhibition (cell growth inhibition %)
From the text: as §1, §2

HOP-92 = assay: NCI 60-cell line one dose antiproliferative assay; assay type: cell-based; conditions: Homo sapiens; HOP-92, Non-Small Cell Lung Cancer, 10 µM one dose; read-out: Percent inhibition (cell growth inhibition %)
From the text: as §1, §2

SNB-75 = assay: NCI 60-cell line one dose antiproliferative assay; assay type: cell-based; conditions: Homo sapiens; SNB-75, CNS Cancer, 10 µM one dose; read-out: Percent inhibition (cell growth inhibition %)
From the text: as §1, §2

HCT-15 = assay: NCI 60-cell line one dose antiproliferative assay; assay type: cell-based; conditions: Homo sapiens; HCT-15, Colon Cancer, 10 µM one dose; read-out: Percent inhibition (cell growth inhibition %)
From the text: as §1, §2

NCI-H322M = assay: NCI 60-cell line one dose antiproliferative assay; assay type: cell-based; conditions: Homo sapiens, Non-Small Cell Lung Cancer, 10 µM one dose, read-out: Percent inhibition (cell growth inhibition %)
From the text: as §1, §2

NCI-H23 = assay: NCI 60-cell line one dose antiproliferative assay; assay type: cell-based; conditions: Homo sapiens; NCI-H23, Non-Small Cell Lung Cancer, 10 µM one dose; read-out: Percent inhibition (cell growth inhibition %)
From the text: as §1, §2

RPMI-8226 = assay: NCI 60-cell line one dose antiproliferative assay; assay type: cell-based; conditions: Homo sapiens; RPMI-8226, Leukemia, 10 µM one dose; read-out: Percent inhibition (cell growth inhibition %)
From the text: as §1, §2

HCT-116 = assay: NCI 60-cell line one dose antiproliferative assay; assay type: cell-based; conditions: Homo sapiens; HCT-116, Colon Cancer, 10 µM one dose; read-out: Percent inhibition (cell growth inhibition %)
From the text: as §1, §2

Chain of GSK-3β (P49841 whole entry): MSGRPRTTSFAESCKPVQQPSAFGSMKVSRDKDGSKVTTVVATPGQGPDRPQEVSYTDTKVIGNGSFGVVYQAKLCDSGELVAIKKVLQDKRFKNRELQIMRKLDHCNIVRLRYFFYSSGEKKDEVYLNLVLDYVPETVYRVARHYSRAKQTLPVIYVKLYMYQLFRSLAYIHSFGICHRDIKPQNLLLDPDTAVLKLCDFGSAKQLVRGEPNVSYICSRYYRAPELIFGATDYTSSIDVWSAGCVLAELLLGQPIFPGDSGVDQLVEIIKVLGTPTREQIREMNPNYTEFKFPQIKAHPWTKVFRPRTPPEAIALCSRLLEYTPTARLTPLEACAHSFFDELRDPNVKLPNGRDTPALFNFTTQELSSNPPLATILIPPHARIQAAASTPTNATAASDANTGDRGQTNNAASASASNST

Row | Compound | melting point [°C] | inhibition at 100 µM (GSK-3β) [%] | inhibition at 10 µM (UO-31) [%] | inhibition at 10 µM (T-47D) [%] | inhibition at 10 µM (K-562) [%] | inhibition at 10 µM (CAKI-1) [%] | inhibition at 10 µM (UACC-62) [%] | inhibition at 10 µM (U251) [%] | inhibition at 10 µM (LOX IMVI) [%] | inhibition at 10 µM (A498) [%] | inhibition at 10 µM (MDA-MB-231/ATCC) [%] | inhibition at 10 µM (786–0) [%] | inhibition at 10 µM (MCF7) [%] | inhibition at 10 µM (SF-539) [%] | inhibition at 10 µM (NCI-H522) [%] | inhibition at 10 µM (PC-3) [%] | inhibition at 10 µM (M14) [%] | inhibition at 10 µM (SNB-19) [%] | inhibition at 10 µM (SF-295) [%] | inhibition at 10 µM (SN12C) [%] | also measured
1 | O=C(Nc1ccc(Cl)c(C(F)(F)F)c1)Nc1ncnc2sc3c(c12)CCCC3 [9c, 1-(4-Chloro-3-(trifluoromethyl)phenyl)-3-(5,6,7,8tetrahydrobenzo[4,5]thieno[2,3-d]pyrimidin-4-yl)urea] | 300 | 68 | – | – | – | – | – | – | – | – | – | – | – | – | – | – | – | – | – | – | –
2 | COc1ccc(C=NNC(=O)COc2ncnc3sc4c(c23)CCCC4)c(OC)c1OC [5a, 2-((5,6,7,8-Tetrahydrobenzo [4,5]thieno[2,3-d]pyrimidin-4-yl)oxy)-N'-(2,3,4-trimethoxybenzylidene) acetohydrazide] | 280 to 281 | 24 | 23.3 | 4.24 | 7.93 | 7.04 | 8.06 | 0.3 | 4.82 | 11.8 | 6.61 | 0.81 | 10.7 | 5.93 | 5.39 | 2.52 | 1.68 | 6.88 | 0.79 | 5.91 | inhibition at 10 µM (SK-MEL-5): 1.37%; inhibition at 10 µM (SF-268): 0.3%; inhibition at 10 µM (ACHN): 0.55%; inhibition at 10 µM (IGROV1): 1.47%; inhibition at 10 µM (SR): 2.15%; inhibition at 10 µM (HS 578 T): 7.21%; inhibition at 10 µM (MALME-3 M): 2.96%; inhibition at 10 µM (NCI-H226): 0.3%; inhibition at 10 µM (OVCAR-5): 5%; inhibition at 10 µM (HOP-92): 2.18%; inhibition at 10 µM (SNB-75): 28.5%; inhibition at 10 µM (GSK-3β; 10 μM): 6%
3 | O=C(COc1ncnc2sc3c(c12)CCCC3)NNC(=S)Nc1ccccc1 [6a] | 270 to 272 | 82 | 14.8 | 6.64 | 7.06 | 1.14 | 7.2 | 3.33 | 1.31 | 47 | 3.71 | 1.23 | 12.3 | 2.42 | 5.09 | 3.65 | 0.96 | 5.27 | 2.64 | 3.79 | inhibition at 10 µM (HCT-15): 0.17%; inhibition at 10 µM (NCI-H322M): 0.95%; inhibition at 10 µM (NCI-H23): 3.1%; inhibition at 10 µM (RPMI-8226): 3.86%; inhibition at 10 µM (OVCAR-5): 3.88%; inhibition at 10 µM (HCT-116): 1.5%; inhibition at 10 µM (SNB-75): 14.6%; IC50 (GSK-3β): 17.3 µM
4 | Cc1cccc(NC(=O)Nc2ncnc3sc4c(c23)CCCC4)c1 [9b, 1-(5,6,7,8-Tetrahydrobenzo[4,5]thieno[2,3-d]pyrimidin-4-yl)-3-(m-tolyl)urea] | 300 | 70 | – | – | – | – | – | – | – | – | – | – | – | – | – | – | – | – | – | – | IC50 (GSK-3β): 28 µM
